{"source": "paper PMC4581228", "about": "“Membrane Affinity of Platensimycin and Its Dialkylamine Analogs” (International Journal of Molecular Sciences, 2015)", "key": {"[1]": {"system": "WT MscS in the cytoplasmic membrane of E. coli", "assay": "Patch-clamp of WT MscS in excised spheroplast patches (activation midpoint shift)", "conditions": "cytoplasmic addition of 0.6 mM, six independent patches", "excerpt": "We explored the A98S gain-of-function mutant of MscS and found it to be a more suitable sensor. In pressure ramp experiments this mutant activates earlier, but apparently has the same tension dependency of inactivation as WT [20]. […] The serine-for-alanine substitution hydrophilizes the outer portion of the hydrophobic pore. As a result, the remaining hydrophobic region is localized to the cytoplasmic portion of the pore, placing the gate more asymmetrically relative to the mid-plane of the bilayer. […] We tested this mutant against WT with a cytoplasmic addition of 0.6 mM paraben, which has been characterized previously. The typical activation curves (open probability vs. pipette pressure) measured with pipettes of equal size for the two channels are shown in Figure 2. Not only is the absolute shift of activating pressure (p0.5) greater for A98S, but the percentage of midpoint shift relative to the original midpoint averaged for six independent patches was 41% ± 6% for the mutant vs. 14% ± 4% for WT. […]\nSpheroplasts were generated as described previously. […] Membrane patches were obtained on borosilicate glass pipettes and recorded at 30 mV pipette voltage set by a microelectrode amplifier. The midpoint of activation for channels in each patch was determined at two-minute intervals for the duration of the experiment via a 1 s ramp of saturating pressure. […]"}, "[2]": {"system": "A98S MscS in the cytoplasmic membrane of E. coli", "assay": "Patch-clamp of A98S MscS in excised spheroplast patches (activation midpoint shift)", "conditions": "A98S MscS, cytoplasmic addition of 0.6 mM, six independent patches", "experimental": "A pB10b vector was used to house and express the mscS gene in the triple-knockout E. coli strain MJF465 (mscS^−, mscL^−, mscK^−). The A98S MscS mutant, generated and partially characterized previously, was chosen for its higher sensitivity to inner leaflet drug partitioning.\nSpheroplasts were generated as described previously. The experimental bath solution contained 400 mM sucrose, 200 mM KCl, 50 mM MgCl2, 5 mM CaCl2, and 5 mM HEPES and was titrated to pH 7.4 with KOH. Membrane patches were obtained on borosilicate glass pipettes and recorded at 30 mV pipette voltage set by a microelectrode amplifier. The midpoint of activation for channels in each patch was determined at two-minute intervals for the duration of the experiment via a 1 s ramp of saturating pressure. Analogs of platensimycin were pre-diluted in either ethanol or bath solution and perfused into the bath to achieve the desired concentration; control injections of equivalent volumes of ethanol had no effect on the midpoint of activation. Negative pressure (suction) was applied with the HSPC-1 high speed pressure clamp apparatus from ALA Scientific. Programming of the pressure protocols and data analysis was performed with the PClamp10 suite (Axon Instr., Foster City, CA, USA). The principle of lateral pressure measurements using two experimental systems, lipid monolayers and patch-clamp, is illustrated in Figure 1.\nSimilarly, the bulk-membrane partitioning coefficient (Kmem) was estimated from the values of relative increase in MscS activation pressure midpoint (p0.5) measured in patch-clamp experiments at different concentrations of intercalating agents by linear fit of Δp0.5 as a function of log(Cd)."}}, "data": [{"smiles": "CCCCOC(=O)c1ccc(O)cc1", "note": "[paraben, butyl paraben, reference compound]", "values": [{"measurement": "Percentage of midpoint shift relative to the original midpoint", "setting": "[1]", "result": "14% ± 4%"}, {"measurement": "Percentage of midpoint shift relative to the original midpoint", "setting": "[2]", "result": "41% ± 6%"}]}]}
